Columns and labels:
[1] = Sirolimus tissue concentration in porcine coronary arteries by LC-MS; format: in vivo; conditions: 50 mg/ml
Protocol: In accordance with a second experiment, the efficacy of a PTCA balloon coated with the 5 percent BHT solution was tested in a porcine injury model. The balloon coating formulation of sirolimus and BHT (5 percent BHT, w/w) was made according to the procedure described above. In total, three coating solutions of sirolimus and BHT (5 percent BHT, w/w) and one coating solution without BHT were prepared for the study. A standard CYPHER® Sirolimus-eluting Coronary Stent available from the Cordis Corporation was used as a control for the study. Both FIRE STAR® PTCA balloons (3.5 mm×20 mm, with total surface area of 220 mm^2) with hydrophilic treatment and the ones without a hydrophilic treatment were tested in the study. The final coating density of sirolimus and sirolimus loss during expansion were measured by HPLC. The tissue concentration in the porcine coronary arteries was measured by liquid chromatography-mass spectroscopy (LC-MS). The amount of intimal hyperplasia was determined by standard quantitative coronary angiography (QCA) at day 30.

[2] = Drug concentration in liquid formulations by liquid chromatography / HPLC; format: physicochemical
Description: A series of liquid formulations were developed for the local or regional delivery of water insoluble compounds such as sirolimus and its analogs, including CCI-779, ABT-578 and everolimus, through weeping balloons and catheter injection needles. Sirolimus and its analogs are rapamycins. These liquid formulations increase the apparent solubility of the pharmacologically active but water insoluble compounds by two to four orders of magnitude as compared to the solubility limits of the compounds in water. These liquid formulations rely on the use of a very small amount of organic solvents such as Ethanol and a larger amount of safe amphiphilic (of or relating to a molecule having a polar, water soluble group attached to a non-polar, water insoluble […]) excipients such as polyethylene glycol (PEG 200, PEG 400) and vitamin E TPGS to enhance the solubility of the compounds. These liquid formulations of highly water insoluble compounds are stable and readily flowable at room temperature. Certain excipients, such as Vitamin E TPGS and BHT may be utilized to enhance the storage stability of sirolimus compounds through their anti-oxidation properties.
Table 7, shown below, summarizes the concentrations of the excipient, the co-solvents and the drug for four different liquid formulations. […]

[3] = Percent drug content change of coated cobalt-chromium 18 mm stent over 0 to 12 weeks (FIG. 1); format: physicochemical; conditions: 0.02 weight percent BHT per total basecoat solids; 8 weeks and 12 weeks, ambient conditions (25° C.)
Description: Referring to FIG. 1, there is illustrated in graphical format, the results of the same drug screening as described above with the solution applied to a cobalt-chromium, 18 mm stent. In this test, two sets of solution samples were utilized, one with sirolimus and polymer solution containing the antioxidant and one with sirolimus and polymer solution containing no antioxidant. The antioxidant utilized was 0.02 weight percent BHT per total basecoat solids. The test was utilized to determine the percent drug content change over a time period of 0 to 12 weeks under two conditions; namely, 40° C. with 75 percent relative humidity, and ambient conditions (25° C.).

[4] = Protocol: Table 9, shown below, summarizes a number of injectable liquid formulations of paclitaxel utilizing combinations of ethanol, PEG 400 and water. Specifically, the formulations set forth in Table 9 were made and analyzed for their concentrations of its various constituents. The concentrations are determined by liquid chromatography and are presented as weight by volume figures. The concentration of ethanol is preferably two or less percent so as to avoid ethanol becoming an active ingredient in the formulation.
Another aqueous liquid or injectable formulation of paclitaxel is made utilizing ethanol, PEG 400 and water, and ethanol, Vitamin E TPGS, PEG400 and water. In making the first formulation, 100 mg of paclitaxel is added to 400 μl of ethanol in a pre-weighed 20 ml scintillation vial. The mixture of paclitaxel and ethanol is vortexed and heated in a 60 degree C. bath for ten minutes. Once the drug is completely solubilized, 20 ml of PEG 400 is then added to make the final paclitaxel concentration 5 mg/ml. […] In a separate experiment, a series of 20 ml scintillation vials containing Vitamin E TPGS are heated or warmed up in a 50 degree C. water bath for ten minutes. Concurrently, distilled water is also warmed in a 50 degree C. water bath. […]

SMILES: CO[C@H]1C[C@@H]2CC[C@@H](C)[C@@](O)(O2)C(=O)C(=O)N2CCCC[C@H]2C(=O)O[C@H]([C@H](C)C[C@@H]2CC[C@@H](O)[C@H](OC)C2)CC(=O)[C@H](C)/C=C(\C)[C@@H](O)[C@@H](OC)C(=O)[C@H](C)C[C@H](C)/C=C/C=C/C=C/1C [Rapamycin, rapamycin]
- Sirolimus conc in artery tissue post-deploy ([1]; 20 min, hydrophilic coat No, Acetone/ethanol/water (50/40/10), BHT 5% (PKd)): 382 ± 190 ng sirolimus/mg tissue
- Sirolimus conc in artery tissue post-deploy ([1]; 20 min, hydrophilic coat No, IPA/Water (3.4/1), BHT 5% (PKb)): 218 ± 96 ng sirolimus/mg tissue
- Sirolimus conc in artery tissue post-deploy ([1]; 20 min, hydrophilic coat yes, IPA/Water (3.4/1), BHT 0% (PKc)): 219 ± 85 ng sirolimus/mg tissue
- Sirolimus conc in artery tissue post-deploy ([1]; 20 min, hydrophilic coat yes, IPA/Water (3.4/1), BHT 5% (Pka)): 313 ± 61 ng sirolimus/mg tissue
- Sirolimus conc in artery tissue post-deploy ([1]; 24 hr, hydrophilic coat No, Acetone/ethanol/water (50/40/10), BHT 5% (PKd)): 25 ± 20 ng sirolimus/mg tissue
- Sirolimus conc in artery tissue post-deploy ([1]; 24 hr, hydrophilic coat No, IPA/Water (3.4/1), BHT 5% (PKb)): 39 ± 37 ng sirolimus/mg tissue
- Sirolimus conc in artery tissue post-deploy ([1]; 24 hr, hydrophilic coat yes, IPA/Water (3.4/1), BHT 0% (PKc)): 16 ± 11 ng sirolimus/mg tissue
- Sirolimus conc in artery tissue post-deploy ([1]; 24 hr, hydrophilic coat yes, IPA/Water (3.4/1), BHT 5% (Pka)): 40.7 ± 14.6 ng sirolimus/mg tissue
- Sirolimus conc in artery tissue post-deploy ([1]; 8 day, hydrophilic coat No, Acetone/ethanol/water (50/40/10), BHT 5% (PKd)): 21 ± 36 ng sirolimus/mg tissue
- Sirolimus conc in artery tissue post-deploy ([1]; 8 day, hydrophilic coat No, IPA/Water (3.4/1), BHT 5% (PKb)): 14 ± 15 ng sirolimus/mg tissue
- Sirolimus conc in artery tissue post-deploy ([1]; 8 day, hydrophilic coat yes, IPA/Water (3.4/1), BHT 0% (PKc)): 16 ± 18 ng sirolimus/mg tissue
- Sirolimus conc in artery tissue post-deploy ([1]; 8 day, hydrophilic coat yes, IPA/Water (3.4/1), BHT 5% (Pka)): 9.8 ± 10.4 ng sirolimus/mg tissue
- Sirolimus conc in artery tissue post-deploy ([1]; 30 day, hydrophilic coat No, Acetone/ethanol/water (50/40/10), BHT 5% (PKd)): 12 ± 18 ng sirolimus/mg tissue
- Sirolimus conc in artery tissue post-deploy ([1]; 30 day, hydrophilic coat No, IPA/Water (3.4/1), BHT 5% (PKb)): 5.0 ± 4.8 ng sirolimus/mg tissue
- Sirolimus conc in artery tissue post-deploy ([1]; 30 day, hydrophilic coat yes, IPA/Water (3.4/1), BHT 0% (PKc)): 3.2 ± 2.8 ng sirolimus/mg tissue
- Sirolimus conc in artery tissue post-deploy ([1]; 30 day, hydrophilic coat yes, IPA/Water (3.4/1), BHT 5% (Pka)): 8.4 ± 5.7 ng sirolimus/mg tissue
- concentration in the 4 mg/ml PEG 200 formulation relative to the solubility in water ([2]; PEG 200 excipient, ethanol and water co-solvents): four hundred to about one thousand

SMILES: Cc1cc(C(C)(C)C)c(O)c(C(C)(C)C)c1 [BHT, butylated hydroxytoluene]
- percent drug content change (drug degradation) [3]: lessens drug degradation

SMILES: CC(=O)O[C@H]1C(=O)[C@@]2(C)[C@H]([C@H](OC(=O)c3ccccc3)[C@]3(O)C[C@H](OC(=O)[C@H](O)[C@@H](NC(=O)c4ccccc4)c4ccccc4)C(C)=C1C3(C)C)[C@]1(OC(C)=O)CO[C@@H]1C[C@@H]2O [paclitaxel]
- fold higher than the solubility in water [4]: about 1000 fold
- concentration reached in true aqueous liquid formulations ([4]; PEG 400 / Vitamin E TPGS / ethanol / water): up to 2.5 mg/ml

SMILES: CO[C@H]1C[C@@H]2CC[C@@H](C)[C@@](O)(O2)C(=O)C(=O)N2CCCC[C@H]2C(=O)O[C@H]([C@H](C)C[C@@H]2CC[C@@H](OC(=O)C(C)(CO)CO)[C@H](OC)C2)CC(=O)[C@H](C)/C=C(\C)[C@@H](O)[C@@H](OC)C(=O)[C@H](C)C[C@H](C)/C=C/C=C/C=C/1C [CCI-779]
- concentration in the final solution (HPLC assay) ([2]; ethanol less than two percent, Vitamin E TPGS, water): 15000 µg/mL
